Data published in patent US20020137929A1, “1 - (3-heterocyclylphenyl) isothiourea, -isourea, -guanidine and -amidine herbicidal agents” (Intellectual Property Department, BASF Aktiengesellschaft, priority 1998, published 2002).

Assays:
MOOVA (Monochoria) = experiment: Preemergence weed control under flooded paddy conditions; type: in vivo, Monochoria vaginalis; conditions: 0.2500 kg/ha, rated 3-4 weeks after treatment
Method in brief: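 Greenhouse paddy assay. Acetone/water (50/50 v/v) solutions dosed into flood water, equivalent to about 0.0313 to 0.500 kg/ha active ingredient, over seeds planted 0.5 cm deep in silt loam. Score: 0-9 visual, based on stand, vigor, malformation, size and chlorosis, 3 to 4 weeks after treatment.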

[1] = test system: CHEAL (Lambsquarters, Common); experiment: Postemergence herbicidal evaluation; type: in vivo, Chenopodium album; conditions: postemergence
Method in brief: (§1)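 Herbicidal effect was judged by eye on a 0–9 scale covering stand, vigor, deformity, size and chlorosis, compared with controls, four to five weeks after seedlings about two weeks old were sprayed (40 psi, ~0.0156–0.500 kg/ha).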

GALAP (Galium) = experiment: Postemergence herbicidal evaluation; type: in vivo, Galium aparine; conditions: postemergence
Method in brief: as §1

ZEAMX (Corn, Field) = experiment: Postemergence herbicidal evaluation; type: in vivo, Zea mays; conditions: postemergence
Method in brief: as §1

ORYSAT (Rice, Tebonnet) [2] = experiment: Preemergence herbicidal evaluation; type: in vivo, Oryza sativa, (L.) Tebonnet; conditions: rated 4-5 weeks after treatment, rating scale 0-9
Method in brief: (§2)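 Steps: mix seeds into potting soil; plant atop ~1 inch soil; spray compound in aqueous acetone (~0.0156-0.500 kg/ha equivalent); maintain in greenhouse with watering; rate visually 0-9 versus control at 4-5 weeks.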

ORYSAT (Rice, Tebonnet) [3] = experiment: Postemergence herbicidal evaluation; type: in vivo, Oryza sativa, (L.) Tebonnet; conditions: postemergence
Method in brief: as §1

AMBEL (Ragweed, Common) = experiment: Preemergence herbicidal evaluation; type: in vivo, Ambrosia artemisifolia; conditions: rated 4-5 weeks after treatment, rating scale 0-9
Method in brief: as §2

CASOB (Sicklepod) = experiment: Postemergence herbicidal evaluation; type: in vivo, Cassia obtusifolia; conditions: postemergence
Method in brief: as §1

[4] = test system: GLXMAW (Soybean, Williams); experiment: Preemergence herbicidal evaluation; type: in vivo, Glycine max, (L.) Merr. cv Williams; conditions: rated 4-5 weeks after treatment, rating scale 0-9
From the text: Results of herbicide evaluation are expressed on a rating scale (0-9). The scale is based upon a visual observation of plant stand, vigor, malformation, size, chlorosis and overall plant appearance as compared with a control.
The preemergence herbicidal activity of the test compounds of the present invention is exemplified by the following tests in which the seeds of a variety of monocotyledonous and dicotyledonous plants are separately mixed with potting soil and planted on top of approximately one inch of soil in separate pint cups. After planting, the cups are sprayed with the selected aqueous acetone solution containing test compound in sufficient quantity to provide the equivalent of about 0.0156 to 0.500 kg per hectare of test compound per cup. The treated cups are then placed on greenhouse benches, watered and cared for in accordance with conventional greenhouse procedures. From four to five weeks after treatment, the tests are terminated and each cup is examined and rated according to the rating system provided in Example 37.
The compounds evaluated are reported by compound number given in Example 37.

SETVI (Foxtail, Green) = experiment: Preemergence herbicidal evaluation; type: in vivo, Setaria viridis; conditions: rated 4-5 weeks after treatment, rating scale 0-9
Method in brief: as §2

COc1ccc(CN2C(=O)CSC2=Nc2cc(-n3c(=O)cc(C(F)(F)F)n(C)c3=O)c(F)cc2Cl)cc1OC [Compound 134, 3-{4-Chloro-5-{[3-(3,4-dimethoxybenzyl)-4-oxo-2-thiazolidinylidene]amino}-2-fluorophenyl}-1-methyl-6-(trifluoromethyl)-2,4(1H,3H)-pyrimidinedione]
0.0: herbicidal rating GALAP (GALAP (Galium); rate 0.0156 kg/ha) | Preemergence herbicidal rating ORYSAT (ORYSAT (Rice, Tebonnet) [2]; rate 0.1250 kg/ha) | Preemergence herbicidal rating ORYSAT (ORYSAT (Rice, Tebonnet) [2]; rate 0.2500 kg/ha) | Preemergence herbicidal rating AMBEL (AMBEL (Ragweed, Common); rate 0.1250 kg/ha) | herbicidal rating CASOB (CASOB (Sicklepod); rate 0.0156 kg/ha) | herbicidal rating CASOB (CASOB (Sicklepod); rate 0.0313 kg/ha) | herbicidal rating CASOB (CASOB (Sicklepod); rate 0.0625 kg/ha) | Preemergence herbicidal rating GLXMAW ([4]; rate 0.1250 kg/ha) | Preemergence herbicidal rating GLXMAW ([4]; rate 0.2500 kg/ha) | Preemergence herbicidal rating SETVI (SETVI (Foxtail, Green); rate 0.1250 kg/ha)
3.0: herbicidal rating CHEAL ([1]; rate 0.0313 kg/ha) | Preemergence herbicidal rating AMBEL (AMBEL (Ragweed, Common); rate 0.2500 kg/ha)
3.5: herbicidal rating ZEAMX (ZEAMX (Corn, Field); rate 0.0156 kg/ha)
1.0: herbicidal rating CHEAL ([1]; rate 0.0156 kg/ha) | herbicidal rating GALAP (GALAP (Galium); rate 0.0313 kg/ha) | herbicidal rating ORYSAT (ORYSAT (Rice, Tebonnet) [3]; rate 0.0156 kg/ha)
1.5: herbicidal rating ORYSAT (ORYSAT (Rice, Tebonnet) [3]; rate 0.0313 kg/ha)
4.0: herbicidal rating CHEAL ([1]; rate 0.0625 kg/ha)
4.5: herbicidal rating ZEAMX (ZEAMX (Corn, Field); rate 0.0313 kg/ha) | herbicidal rating ZEAMX (ZEAMX (Corn, Field); rate 0.0625 kg/ha)
2.0: herbicidal effect rating, MOOVA (MOOVA (Monochoria)) | herbicidal rating GALAP (GALAP (Galium); rate 0.0625 kg/ha) | herbicidal rating ORYSAT (ORYSAT (Rice, Tebonnet) [3]; rate 0.0625 kg/ha) | Preemergence herbicidal rating SETVI (SETVI (Foxtail, Green); rate 0.2500 kg/ha)

CSCCN1C(=O)CSC1=Nc1cc(-n2c(=O)cc(C(F)(F)F)n(C)c2=O)c(F)cc1Cl [Compound 157]
7.0: herbicidal rating ZEAMX (ZEAMX (Corn, Field); rate 0.0156 kg/ha) | herbicidal rating ZEAMX (ZEAMX (Corn, Field); rate 0.0313 kg/ha) | herbicidal rating ZEAMX (ZEAMX (Corn, Field); rate 0.0625 kg/ha)
2.0: herbicidal rating CHEAL ([1]; rate 0.0156 kg/ha) | herbicidal rating GALAP (GALAP (Galium); rate 0.0625 kg/ha) | herbicidal rating ORYSAT (ORYSAT (Rice, Tebonnet) [3]; rate 0.0156 kg/ha) | Preemergence herbicidal rating GLXMAW ([4]; rate 0.1250 kg/ha) | Preemergence herbicidal rating SETVI (SETVI (Foxtail, Green); rate 0.1250 kg/ha)
3.0: herbicidal rating ORYSAT (ORYSAT (Rice, Tebonnet) [3]; rate 0.0625 kg/ha) | herbicidal rating CASOB (CASOB (Sicklepod); rate 0.0625 kg/ha)
4.0: herbicidal rating CHEAL ([1]; rate 0.0313 kg/ha) | Preemergence herbicidal rating GLXMAW ([4]; rate 0.2500 kg/ha)
9.0: herbicidal rating CHEAL ([1]; rate 0.0625 kg/ha)
1.0: Preemergence herbicidal rating AMBEL (AMBEL (Ragweed, Common); rate 0.2500 kg/ha) | Preemergence herbicidal rating GLXMAW ([4]; rate 0.0313 kg/ha) | Preemergence herbicidal rating SETVI (SETVI (Foxtail, Green); rate 0.2500 kg/ha)
2.5: herbicidal rating ORYSAT (ORYSAT (Rice, Tebonnet) [3]; rate 0.0313 kg/ha)
0.0: herbicidal effect rating, MOOVA (MOOVA (Monochoria)) | herbicidal rating GALAP (GALAP (Galium); rate 0.0156 kg/ha) | herbicidal rating GALAP (GALAP (Galium); rate 0.0313 kg/ha) | Preemergence herbicidal rating ORYSAT (ORYSAT (Rice, Tebonnet) [2]; rate 0.0313 kg/ha) | Preemergence herbicidal rating ORYSAT (ORYSAT (Rice, Tebonnet) [2]; rate 0.0625 kg/ha) | Preemergence herbicidal rating ORYSAT (ORYSAT (Rice, Tebonnet) [2]; rate 0.1250 kg/ha) | Preemergence herbicidal rating ORYSAT (ORYSAT (Rice, Tebonnet) [2]; rate 0.2500 kg/ha) | Preemergence herbicidal rating AMBEL (AMBEL (Ragweed, Common); rate 0.0313 kg/ha) | Preemergence herbicidal rating AMBEL (AMBEL (Ragweed, Common); rate 0.0625 kg/ha) | Preemergence herbicidal rating AMBEL (AMBEL (Ragweed, Common); rate 0.1250 kg/ha) | herbicidal rating CASOB (CASOB (Sicklepod); rate 0.0156 kg/ha) | herbicidal rating CASOB (CASOB (Sicklepod); rate 0.0313 kg/ha) | Preemergence herbicidal rating GLXMAW ([4]; rate 0.0625 kg/ha) | Preemergence herbicidal rating SETVI (SETVI (Foxtail, Green); rate 0.0313 kg/ha) | Preemergence herbicidal rating SETVI (SETVI (Foxtail, Green); rate 0.0625 kg/ha)
